Legend:
[1] = system: Ninety-two cancer cell lines; assay: In vitro modeling of clinical dosing schema, AZA with CBDCA or ABX, cancer cell line panel; type: cell-based; details: other experiments; some cell lines
Method: DNA hypomethylation (e.g., LINE-1, p16) was measured 72 hours after AZA treatment alone or in combination with CBDCA or ABX. p16 (mRNA) re-expression was determined 72 hours after AZA treatment alone or in combination with CBDCA or ABX. Ninety-two cancer cell lines were tested in order to identify specific tumor types that become sensitized to CBDCA or ABX after treatment with AZA (bladder cancer n=8; head and neck cancer n=8, breast cancer n=21; lung cancer n=35; pancreatic cancer n=7; ovarian cancer n=7; and melanoma n=6).

[2] = PK exposure of AZA in patients; type: in vivo; details: human, plasma; oral AZA, patients of the clinical study; read-out: AUCinf of patients in whom decreases in DNA methylation were observed
Method: For oral azacitidine, CBDCA, and ABX (administered alone and in combination), the following plasma PK parameters are assessed: (1) maximum observed concentration in plasma (Cmax); (2) area under the concentration-time curve (AUC); (3) time to maximum concentration (tmax); (4) terminal half-life (t1/2); (5) apparent total body clearance (CL/F); and (6) apparent volume of distribution (Vz/F). To evaluate the PD effects of oral azacitidine in blood, plasma, and tumor tissue, the following endpoints are collected: (1) change from baseline (Cycle 1 Day 1 pre-dose) in DNA methylation (global and gene-specific assays) in whole blood and tumor tissue (as available in Part 1); (2) reduction from baseline (Cycle 1 Day 1 predose) in DNMT1 protein levels in tumor tissue (as available in Part 1).

[3] = system: DNA methylation, hypermethylated loci (beta>0.7); assay: Infinium Methylation27 Array, PBMC DNA of patients; type: in vivo, human; details: patients dosed with 200 mg oral AZA alone (Arm C) or with CBDCA (Arm A) or ABX (Arm B); Days 1, 8, 15 of 21-day cycle
Method: DNA methylation is employed as a biomarker to monitor responses in patients treated with azacitidine in the clinical studies described herein. Analysis is performed with an Infinium Assay (commercially available from Illumina, Inc., San Diego, Calif.). The Infinium Assay combined with BeadChips allows large-scale interrogation of variations in the human genome. For example, the Infinium HumanMethylation27 BeadChip enables interrogation of 27,578 CpG loci, covering over 14,000 genes. […]
The assay for methylation is used to detect methylation status at individual CpG loci by typing bisulfite-converted DNA. […] Blood samples were collected and DNA methylation was analyzed in parallel. In other embodiments, bone marrow samples are collected and DNA methylation analyzed in parallel.
In one embodiment, PBMC DNA was used for assessing changes in DNA methylation, using assays such as LINE-1 methylation, %5mdC mass spec, Infinium® Methylation27 Array, and Infinium® Methylation450 Array. In one study, DNA methylation (LINE-1) in PBMC DNAs from patients in clinical studies described in Example 1, dosed with 200 mg oral AZA alone or in combination with CDBCA or ABX, was measured on Days 1, 8, and 15 of 21-day cycle. […]

[4] = system: DNA methylation (LINE-1 and gene-specific); assay: DNA methylation analysis (LINE-1 or EpiTech Methyl qPCR), MDA-MB-231 cells in vitro; type: cell-based
Method: (§1) The effects of AZA dose and schedule (short-term vs. extended) on pharmacodynamic markers such as DNMT1 depletion, DNA methylation, and DNA damage were evaluated in MDA-MB-231 breast cancer cells in vitro and in vivo. For in vitro experiments, MDA-MB-231 cells were treated daily with 0.1 or 0.3 μM AZA for up to 12 days, and harvested at various times during treatment, as well as up to 12 days following treatment. For in vivo studies, MDA-MB-231 tumor-bearing mice were dosed (ip) with 1 or 3 mg/kg AZA daily for 3, 7, 14, 21, or 28 days and tumors were harvested during and at several time points after the dosing period. DNA and cell lysates were prepared (from cell pellets or xenograft tumors) for DNA methylation analysis (LINE-1 or EpiTech Methyl qPCR assay) and DNMT1/γH2AX western blotting, respectively.

LINE-1 methylation = assay: DNA methylation (LINE-1) in PBMC DNAs from patients; type: in vivo, human; details: patients of Example 1, Arm C, 200 mg oral AZA; Days 1, 8 and 15 of 21-day cycle
Method: (§2) In one embodiment, PBMC DNA was used for assessing changes in DNA methylation, using assays such as LINE-1 methylation, %5mdC mass spec, Infinium® Methylation27 Array, and Infinium® Methylation450 Array. In one study, DNA methylation (LINE-1) in PBMC DNAs from patients in clinical studies described in Example 1, dosed with 200 mg oral AZA alone or in combination with CDBCA or ABX, was measured on Days 1, 8, and 15 of 21-day cycle. […] In one study, %5mdC in PBMC DNAs from patients in clinical studies described in Example 1, dosed with 200 mg oral AZA alone or in combination with CDBCA or ABX, was measured on Days 1, 8, and 15 of 21-day cycle. In one study, methylation levels were measured on Days 1, 8, and 15 of 21-day cycle using Infinium® Methylation27 Array (patients dosed with 200 mg oral AZA alone or in combination with CDBCA or ABX) and density profiles of average methylation levels were analyzed. […] In another study, methylation levels were measured using Infinium® Methylation450 Array (patients dosed with 300 mg oral AZA alone or in combination with CDBCA or ABX) and density profiles of average methylation levels were analyzed, as well as % change of hypermethylated loci (beta>0.7) upon treatment.

[5] = system: DNA methylation (LINE-1 and gene-specific); assay: DNA methylation analysis (LINE-1 or EpiTech Methyl qPCR), MDA-MB-231 xenograft tumors; type: in vivo; details: MDA-MB-231 tumors in mice, 1 or 3 mg/kg AZA ip daily; further reduction with additional days of dosing
Method: as §1

DNMT1 [6] = assay: DNMT1 western blotting, MDA-MB-231 xenograft tumors; type: in vivo, mice
Method: as §1

DNMT1 [7] = assay: DNMT1 western blotting, MDA-MB-231 cells in vitro; type: cell-based
Method: as §1

higher-risk MDS = details: Phase III study, administered subcutaneously, subjects with higher-risk MDS; cited from earlier work
DNA methylation in PBMCs = assay: DNA hypomethylation in PBMCs of patients (summary); type: in vivo, human
Method: as §2

γH2AX = γH2AX western blotting (DNA damage), MDA-MB-231 xenograft tumors; type: in vivo; details: MDA-MB-231 tumor-bearing mice
Method: as §1

Nasopharyngeal cancer = assay: Clinical study Part 1, oral azacitidine alone or with CBDCA or ABX, tumor response; type: in vivo, human; details: Part 1 Arm C
Source text: The study was an open-label, 3-arm, multi-center, dose-escalation study of oral azacitidine in combination with either CBDCA (Arm A), ABX (Arm B), or as a single agent (Arm C) in subjects with relapsed or refractory solid tumors (Part 1). Subjects were assigned to each study Arm at the discretion of the investigator. A minimum of 6 subjects were assigned to each study Arm when a dose level (DL) became open for enrollment. If one (1) or zero (0) out of six (6) subjects in a DL experienced dose limiting toxicity (DLT), the dose of oral azacitidine was escalated in the successive DL. A limited number of oral azacitidine DLs were explored to arrive at a recommended Part 2 dose (RP2D) of oral azacitidine for each study Arm. The RP2D may be the MTD, MAD, or a lower dose depending on the tolerability, PK, and PD observed. Part 1 was followed by expansion cohorts at the RP2D in specific tumor types (Part 2). Approximately 60 subjects were enrolled in Part 1, and approximately 100 subjects were enrolled in Part 2. Safety, efficacy, pharmacokinetics, and pharmacodynamics data were evaluated.
Subjects are evaluated for tumor response after Cycle 2 and every other Cycle thereafter. […]
In one embodiment, in Part 1, Arm C of the study, 5-azacytidine was dosed from Day 1 to Day 21, in a 21-day cycle (continuous). Safety and PD were analyzed. […]

| Compound | Interaction of DAC (decitabine) priming with ABX [1] | Interaction of DAC (decitabine) priming with CBDCA [1] | AUC(0-inf) [2] | DNA methylation in PBMCs upon treatment (hypermethylated loci, beta>0.7) [3] | Time for DNA methylation to return to basal levels upon AZA removal ([4]; MDA-MB-231 cells in vitro) | DNA methylation (LINE-1 and gene-specific) ([4]; MDA-MB-231 cells, 0.1 or 0.3 μM AZA daily, further reduction with additional days of dosing) | DNA methylation (LINE-1) in PBMC DNAs (LINE-1 methylation) | DNA methylation (LINE-1 and gene-specific) [5] | Time to DNMT1 protein depletion post in vivo dose (DNMT1 [6]; MDA-MB-231 tumor-bearing mice, 1 or 3 mg/kg AZA ip) | DNMT1 protein level (DNMT1 [6]; MDA-MB-231 tumor-bearing mice, 1 or 3 mg/kg AZA ip daily) | Time for DNMT1 protein levels to return to basal levels after AZA treatment was halted (DNMT1 [6]; MDA-MB-231 tumors in mice) | Time for DNMT1 protein levels to return to basal levels after AZA treatment was halted (DNMT1 [7]; MDA-MB-231 cells in vitro) | DNMT1 protein level (DNMT1 [7]; MDA-MB-231 cells treated daily with 0.1 or 0.3 μM AZA for up to 12 days) | Survival and time to AML transformation or death (higher-risk MDS) | Patients with DNA hypomethylation in PBMCs / patients analyzed (DNA methylation in PBMCs; 200 mg oral AZA alone (Arm C) or with ABX (Arm B) or CBDCA (Arm A)) | Patients with DNA hypomethylation in PBMCs / patients analyzed (DNA methylation in PBMCs; 300 mg oral AZA alone (Arm C) or with CBDCA (Arm A)) | Days of dosing until DNA damage was observed in tumors (γH2AX; 1 mg/kg AZA ip daily) | Days of dosing until DNA damage was observed in tumors (γH2AX; 3 mg/kg AZA ip daily) | Time on Study (Nasopharyngeal cancer; AZA dose 300 mg single agent, nasopharyngeal patient) | Tumor response (Nasopharyngeal cancer; 5-azacytidine 300 mg Day 1 to Day 21, 21-day cycle, nasopharyngeal cancer) |
| --- | --- | --- | --- | --- | --- | --- | --- | --- | --- | --- | --- | --- | --- | --- | --- | --- | --- | --- | --- | --- |
| Nc1ncn([C@H]2C[C@H](O)[C@@H](CO)O2)c(=O)n1 [DAC, 5-aza-2′-deoxycytidine] | antagonism | additivity or synergy |  |  |  |  |  |  |  |  |  |  |  |  |  |  |  |  |  |  |
| Nc1ncn([C@@H]2O[C@H](CO)[C@@H](O)[C@H]2O)c(=O)n1 [AZA, 4-amino-1-β-D-ribofuranosyl-1,3,5-triazin-2(1H)-one] |  |  | > 350 ng·h/mL | decreases in hypermethylated loci | ≤ 8 days | dose-dependent decrease | Decreases in LINE-1 methylation were observed for two patients | dose-dependent decrease | ≤ 8 h | dose-dependent depletion | 3 to 4 days | 3 to 4 days | dose-dependent depletion | significantly prolonged survival | 5/6 | 3/3 | 21 days | 14 days | >3 mo | Partial responses |

Reference: patent US9693987B2, “Methods for treating cancers using oral formulations of cytidine analogs” (CELGENE CORPORATION, priority 2011, dated 2017)
